Measured values from patent US3987055A, “Azasteroids compounds and derivatives” (The Board of Regents for the Oklahoma Agricultural & …, priority 1974, dated 1976).
Numbered stars: 1 amine (or outer) side, 2 acyl side, 3 side chain; on linkers, the order of the positions; unused ones are H or OH. Bridge positions count the residues as written; N and C are the ends. Square brackets hold non-standard residues; d marks the D form. Peptide text beside a SMILES is read from it. I, II: the chains in the order shown. Actinocin(9to1) = Cc1c2oc3c(C)ccc(C(=O)[*:1])c3nc-2c(C(=O)[*:2])c(N)c1=O; NMeV = CN[C@H](C(=O)O)C(C)C; Sar = CNCC(=O)O

Key:
[1] = cited from earlier work
[2] = test system: Bacillus subtilis; details: as low as; cited from earlier work
[3] = oral, rats; cited from earlier work
[4] = test system: sarcoma 180 ascitis cells; assay: antitumor activity, sarcoma 180 ascites in mice, survival; type: in vivo, mice (Swiss albino CD-1 female); details: i.p., 5 injections
Description: The test system utilized involved Swiss albino CD-1 female mice weighing 25-27 grams which were injected (i.p.) with 1 × 10^6 viable sarcoma 180 ascitis cells. Chemotherapy was initiated 24 hours post-injection with a protocol of five intra-peritonaeal injections at 24 hour intervals.
Animals were weighted at 24 hour intervals and the survival time recorded for each test group.

[5] = cited from earlier work; remark: listed apart in the source

COc1ccc2c(c1)CC[C@@H]1[C@@H]2CC[C@]2(C)C(=O)NC[C@@H]12 [0-methyl ether of 16-azaestrone]
estrogenic activity relative to parent estrone [1]: less than 1.01%

CC(C)CCC[C@@H](C)[C@H]1CC[C@H]2[C@@H]3CC=C4N(CC[N+](C)(C)C)C(=O)CC[C@]4(C)[C@H]3CC[C@]12C [4-Dimethylaminoethyl-4-aza-5-cholesten-3-one methiodide]
concentration that irreversibly inhibits growth of Bacillus subtilis cultures [2]: 1 µg/mL

C[C@]12Cc3cn[nH]c3C[C@@H]1CC[C@@H]1[C@@H]2CC[C@@]2(C)[C@H]1CC[C@]2(C)O [17-Hydroxy-17 α-methylandrostano[3,2]-μ pyrazole]
antiovulatory activity relative to norethisterone [3]: one-fifth of that observed for norethisterone

Cc1c2oc3c(C)ccc(C(=O)N[C@@H]4C(=O)N[C@H](C(C)C)C(=O)N5CCC[C@H]5C(=O)N(C)CC(=O)N(C)[C@@H](C(C)C)C(=O)O[C@@H]4C)c3nc-2c(C(=O)N[C@@H]2C(=O)N[C@H](C(C)C)C(=O)N3CCC[C@H]3C(=O)N(C)CC(=O)N(C)[C@@H](C(C)C)C(=O)O[C@@H]2C)c(N)c1=O [Actinomycin D, reference compound] (I: T[dV]P[Sar][NMeV] / II: T[dV]P[Sar][NMeV]; ester I:1-I:C, II:1-II:C; linker I:N-II:N via Actinocin(9to1))
Survival ratio T/C (survival time of test animal / control animal) ([4]; 4 μg/injection, total 20 μg): 1.9

Oc1ccc2c3c(ccc2c1)-c1[nH]ncc1CC3 [Compound 11a, 10,11-Dihydro-3H-naphth[1,2-g]indazol-7-ol]
Survival ratio T/C (survival time of test animal / control animal) ([4]; 0.8 μg/injection, total 4 μg): 1.0

(3,2-c)-2'-phenylpyrazole of 9α-fluoro-6,16α-dimethyl-Δ^6 -hydrocortisone
anti-inflammatory potency relative to hydrocortisone [5]: over 2000 times
